# Activity calls are given as the source filed them. No cut-off for these calls is given here.
# Molecular target: T1, P-selectin (Homo sapiens) (UniProt P16109)
# T1 sequence (whole entry): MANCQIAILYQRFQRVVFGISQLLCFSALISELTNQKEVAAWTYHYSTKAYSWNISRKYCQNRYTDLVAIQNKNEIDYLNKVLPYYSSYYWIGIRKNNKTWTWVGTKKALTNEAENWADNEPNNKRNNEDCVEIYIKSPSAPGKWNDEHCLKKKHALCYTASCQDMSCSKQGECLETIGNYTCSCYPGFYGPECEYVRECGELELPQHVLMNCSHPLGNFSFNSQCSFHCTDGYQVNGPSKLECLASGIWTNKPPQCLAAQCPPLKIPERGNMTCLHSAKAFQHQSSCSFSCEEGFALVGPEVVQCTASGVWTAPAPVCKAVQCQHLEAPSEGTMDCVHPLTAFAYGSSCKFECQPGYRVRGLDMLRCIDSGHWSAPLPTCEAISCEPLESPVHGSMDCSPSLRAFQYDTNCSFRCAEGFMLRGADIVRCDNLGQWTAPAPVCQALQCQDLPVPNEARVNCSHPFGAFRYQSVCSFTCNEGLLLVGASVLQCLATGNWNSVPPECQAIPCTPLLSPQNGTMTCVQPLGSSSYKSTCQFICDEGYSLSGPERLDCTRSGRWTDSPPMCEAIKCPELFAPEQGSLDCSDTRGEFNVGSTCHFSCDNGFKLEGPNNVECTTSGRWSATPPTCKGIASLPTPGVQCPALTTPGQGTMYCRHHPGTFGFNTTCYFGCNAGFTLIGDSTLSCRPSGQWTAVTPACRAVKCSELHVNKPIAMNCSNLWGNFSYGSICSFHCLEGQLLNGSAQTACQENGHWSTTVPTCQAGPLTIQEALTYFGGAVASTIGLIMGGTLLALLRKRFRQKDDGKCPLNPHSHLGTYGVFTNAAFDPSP
# Assay: Inhibition of human HL60 cell adhesion to P-selectin coated on microtiter plates assessed as reduction in adhesion at 200 uM after 3 days by calcein-AM assay relative to untreated cells
# Format: cell-based
# Set-up: scale not given: the % may be the effect or the level left
# Conditions: HL-60
row,Compound,Activity
1,COC(=O)[C@@]1(OC(C)=O)C[C@H](OC(C)=O)[C@@H](NC(=O)CCC(F)(F)F)[C@H]([C@@H](OC(C)=O)[C@@H](COC(C)=O)OC(C)=O)O1,77%
2,CCC(=O)N[C@H]1[C@H]([C@@H](OC(C)=O)[C@@H](COC(C)=O)OC(C)=O)O[C@@](OC(C)=O)(C(=O)OC)C[C@@H]1OC(C)=O,Active
3,COC(=O)[C@@]1(OC(C)=O)C[C@H](OC(C)=O)[C@@H](NC(=O)CC(F)(F)F)[C@H]([C@@H](OC(C)=O)[C@@H](COC(C)=O)OC(C)=O)O1,62%

# Now from value to molecule:
row,Activity,Compound
1,44%,COC(=O)[C@@]1(OC(C)=O)C[C@H](OC(C)=O)[C@@H](NC(=O)CCC(C)C)[C@H]([C@@H](OC(C)=O)[C@@H](COC(C)=O)OC(C)=O)O1
2,10%,COC(=O)[C@@]1(OC(C)=O)C[C@H](OC(C)=O)[C@@H](NC(=O)CC(C)C)[C@H]([C@@H](OC(C)=O)[C@@H](COC(C)=O)OC(C)=O)O1

# Source: ChEMBL document CHEMBL1157814, “Modulation of cellular adhesion by glycoengineering” (J Med Chem, 2010)
